{"source": "patent US20040043940A1", "about": "“Use of ectoin or ectoin derivatives for protecting stress proteins in the skin” (priority 2000, published 2004)", "system": "HSP 72/73", "assay": "Heat-shock induction of HSP 72/73 stress proteins in primary human keratinocytes (immunofluorescence)", "type": "cell-based", "procedure": "This was ascertained by spreading primary human keratinocytes on microscopic slides and cultivating them over a period of 3 days at 37° C. in KGM 2 medium (Cell Systems). The human keratinocytes were incubated to a confluence of approximately 60% and part of the culture was then treated with 1% ectoin based on the supernatant of the culture medium. The untreated portion of the culture served as control. Following treatment, the human keratinocytes were incubated for a further 16 hours at 37° C. The cultures were then subjected to heat shock by raising the temperature quickly from 37° C. to 44° C. The experiments were carried out by the method proposed by Holland et al in J. Invest Dermatol. (1993), 101: 196-199. Following this heat-shock treatment, incubation was carried out at 37° C. for a further 2 hours. The cells were then fixed. Fixing was carried out in 3 stages:\nfixing solution A (1% CH3COOH/40% ethanol in deionized water v/v, 4° C.), 5 min,\nfixing solution B (96% ethanol in deionized water v/v, 4° C.), 5 min,\nfixing solution A, 5 min.\nThe stress proteins produced were stained by immunofluorescence, which process involved the following steps:\nblockage of non-specific bonding sites with a blocking agent (10% BSA in phosphate buffer): 45 min, 37° C.,\nincubation with the primary antibody anti HSP 72/73 (1:200 dilution in phosphate buffer): 45 min, 37° C.,\nincubation with the FITC-conjugated secondary antibody goat anti mouse (1:200 dilution in phosphate buffer): 45 min, 37° C.,\ncovering of the specimens with fluorescent covering medium and slide cover glasses.\nThe stess proteins were determined quantitatively as HSP 72/73 under a microscope (BX40, filter: WB, burner: U-RFL-T, Olympus)."}
{"smiles": "CC1=N[C@H](C(=O)O)CCN1", "note": "[ectoin, (S)-1,4,5,6-tetrahydro-2-methyl-4-pyrimidinecarboxylic acid]", "values": [{"measurement": "protection of human skin cells against stress factors", "setting": "in vitro, ectoin-treated versus untreated skin cells", "value": "significantly better"}, {"measurement": "induction of HSP 72/73 stress proteins", "setting": "primary human keratinocytes, 1% ectoin pretreatment 16 hours, heat shock 37° C. to 44° C., compared with untreated cultures", "value": "significantly faster"}, {"measurement": "period until HSP 72/73 concentration maximum", "setting": "primary human keratinocytes, 1% ectoin pretreatment, heat shock 44° C., untreated cells 60 minutes", "value": 30, "unit": "min"}]}
